pIC50: −log10 of the molar value.
Experiment: Antioxidant activity assessed as hydroxyl radical scavenging activity incubated for 60 mins in water bath by Fenton reaction-based method
Assay type: functional

Row | SMILES | pIC50
1 | CCCCC1OC(=O)c2cc(N3N=C(C)CC3=O)ccc21 (racemic) | 2.54
2 | CC1=NN(c2ccccc2)C(=O)C1 [EDARAVONE] | 2.45

— ChEMBL document CHEMBL4680275, “From Seeds of Apium graveolens Linn. to a Cerebral Ischemia Medicine: The Long Journey of 3-n-Butylphthalide” (J Med Chem, 2020)
